What was measured:
[1] = system: PARP, RB and caspase-3 cleavage in Jurkat T cells; test: Western blot of caspase-3, PARP and RB in Jurkat T cells; assay type: cell-based, human
Protocol: (§1) e. Whole cell extracts and western blot assay. To prepare whole cell extracts, cells were washed with PBS, and homogenized in lysis buffer (50 mM Tris, pH 8.0, 5 mM EDTA, 150 mM NaCl, 0.5% Nonidet P-40, 0.5 mM PMSF and 0.5 mM dithiothreitol). Following 30 min rocking at 4° C., the lysates were centrifuged and the supernatants were collected as whole cell extracts. The protein samples were then analyzed by sodium dodecyl sulfate-6% polyacrylamide gel electrophoresis (20-60 μg protein per lane) followed by the enhanced chemiluminescence Western blot assay using specific antibodies to CPP32, PARP, p21, p27 or RB.
Example 1 was designed to determine if MCP is involved in the survival signaling pathway(s) and if inhibition of MCP activity induces apoptosis. Human Jurkat T cells were treated with 30 μM Compound A for 4 h. […] Both the p112 and p115 forms of RB as p112-115/RB were combined and used as an apoptosis marker.
The ability of these three MCP inhibitors to induce changes in PARP and RB proteins in a parallel experiment was also investigated. […] This rank corresponded exactly to that of the three compounds for inhibition of the chymotrypsin-like activity in isolated proteasomes (Iqbal, M., et al. J. Med Chem. 38: 2276-2277, 1995; Iqbal, M., et al. Bioorg. Med. Chem. Lett. 6: 287-290, 1996) and in intact murine B cells (Harding, C. V., et al. J Immuno. 155: 1767-1775, 1995).

[2] = system: Bcl-2-overexpressing Jurkat cells; test: Apoptosis in Bcl-2-overexpressing Jurkat cells (nuclear staining, western blot); assay type: cell-based, human
Protocol: b. Cell culture. Human Jurkat T and HL-60 cells were grown in RPMI 1640 (Life Technologies, Inc.) supplemented with 10% fetal calf serum (Sigma), 100 units/ml of penicillin, 100 μg/ml of streptomycin and 2mM L-glutamine (growth medium). Jurkat T. cells overexpressing the Bcl-2 oncoprotein or vector alone (provided by Dr. D. Johnson, University of Pittsburgh, Pa.) were grown in the same growth medium with […] G418. Human cancer cell lines of breast (MCF-7, MDA-MB-231), prostate (DU145, PC3) and osteosarcoma (U2-OS), obtained from American Type Culture Collection (ATCC. Rockville, Md.)), were also grown in the RPMI growth medium. Human oral (SCC-25; from ATCC) and brain (SNB-19; Welch, W. C., et al. In Vitro Cell. Dev. Biol., 31:610-616, 1995) cancer cell lines, and normal (WI-38) and SV40-transformed human fibroblasts (WI-38 VA-13; from ATCC) were grown in DMEM medium containing 10% fetal calf serum, penicillin, streptomycin and L-glutamine.
(§2) d. Flow cytometry nuclear staining and DNA fragmentation assays. DNA content analysis using flow cytometry was performed as described previously (Nicoletti, I., et al. J. Immunol. Methods 139:271-279, 1992). To assay nuclear morphology, cells were washed with PBS, fixed with 70% ethanol for 1 h, and stained with Hoechst 33258 (1 mM) for 30 min. The nuclear morphology of cells was visualized by fluorescence microscope (OLYMPUS BH2). DNA fragmentation was assayed as described previously (Grant, S., et al. Cancer Res. 52:6270-6278, 1992).
as §1
It has been shown that overexpression of Bcl-2 oncoprotein inhibits apoptosis in many cell systems (Miura, M., et al., J. Cell 75: 653-660, 1993). Bcl-2 expression in human Jurkat T cells for inhibition of Compound A-induced apoptosis was investigated.

[3] = system: oral aquamous carcinoma cell line SCC-25; test: Detachment and apoptosis in SCC-25 cells; assay type: cell-based, human
Protocol: (§3) c. Treatment of cells with MCP inhibitor. Cells were treated with a specified MCP Inhibitor, a standard anticancer agent (etoposide or cisplatin), or DMSO (vehicle). During this process, morphological changes and cellular detachment (for attached cell lines) were monitored. At each time point, cells were harvested, and used for measurement of apoptosis and other biochemical events. In Example 1, infra, involving YVAD-CMK, Compound A was first added to Jurkat T cells. This was followed immediately by dividing the cells into multiple tissue culture flasks. YVAD-CMK was then added to an indicated concentration.
as §2

[4] = system: human breast cancer MCF-7 cells; test: Detachment and apoptotic nuclear changes in MCF-7 cells; assay type: cell-based; conditions: MCF-7, 24 h
Protocol: as §3, §2
(§4) Detachment was also found in at least half of human breast cancer MDA-MB-231 and MCF-7 cells, after exposure to Compound A for 24 h.

[5] = system: human prostate cancer DU145 cells; test: Detachment and apoptotic nuclear changes in DU145 cells; assay type: cell-based; conditions: DU145, 16 h
Protocol: as §3, §2
Similar to PC-3, about half of human prostate cancer DU145 cells became detached after exposure to Compound A for 16 h.

[6] = target: MCP chymotrypsin-like activity (Homo sapiens, UniProt P28074); test: Inhibition of MCP chymotrypsin-like activity; assay type: biochemical
Source text: The rank-order potency for Jurkat cell killing precisely matched the order for MCP inhibition (Table 2, below).
Inhibition of the chymotrypsin-like activity of MCP by the disclosed MCP inhibitors has been reported, but these MCP inhibitors produced relatively little inhibition on the MCP trypsin-like activity and cathepsin B, a vacuolar cysteine protease (Iqbal, M., et al. J. Med Chem. 38: 2276-2277, 1995; Iqbal, M., et al. Bioorg. Med. Chem. Lett. 6: 287-290, 1996; and Harding, C. V., et al. J. Immuno. 155: 1767-1775, 1995). Furthermore, the order of potency for inhibition of the chymotrypsin-like activity was reported to be Compound A>Compound B>Compound C by using both isolated MCP and intact murine B cells (Iqbal, M., et al. J. Med Chem. 38: 2276-2277, 1995; Iqbal, M., et al. Bioorg. Med. Chem. Lett. 6: 287-290, 1996; and Harding, C. V., et al. J. Immuno. 155: 1767-1775, 1995).

[7] = system: p21 and p27 in normal WI-38 fibroblasts; test: Western blot of p21 and p27 levels in normal WI-38 fibroblasts; assay type: cell-based, human; conditions: normal WI-38, 10 μM, 22 hours
Protocol: as §1
The accumulation of p21 and p27 following treatment with Compound A was also evaluated in SV-40 transformed and normal WI-38 fibroblasts.

[8] = system: human breast cancer MDA-MB-231 cells; test: Detachment and apoptotic nuclear changes in MDA-MB-231 cells; assay type: cell-based; conditions: MDA-MB-231, 24 h
Protocol: as §3, §2, §4

IC50 [6]: 2 nM
SMILES: CC(C)C[C@@H](C=O)NC(=O)[C@@H](CCCNC(=N)N[N+](=O)[O-])NC(=O)C(CCCCCCCCN1C(=O)c2ccccc2C1=O)C1CCCC1 (stereo partly shown) [Compound A]
Production of p85/PARP and p112-115/RB ([1]; Jurkat T cells, 15 μM, time course up to 24 h): production of p85/PARP and p 112-115/RB were observed after 2 h
Cleavage of PARP to p85 and RB to p68 ([1]; Jurkat T cells, 30 μM, 4 h): induced cleavage of PARP to a p85 fragment
Processing of caspase-3 ([1]; Jurkat T cells, 30 μM, 4 h): induced processing of caspase-3
Cleavage of PARP ([1]; Jurkat cells, 30 μM, 3-4 h): complete cleavage of PARP
Effect of Bcl-2 overexpression on induced PARP cleavage and p112-115/RB production ([2]; 15 μM): failed to block cleavage of PARP and production of p112-115/RB
Effect of Bcl-2 expression on induced apoptotic nuclear changes ([2]; 15 μM, 8 h): did not inhibit the apoptotic nuclear changes
Cells exhibiting apoptosis-specific nuclear morphology ([2]; Bcl-2-overexpressing Jurkat, 30 μM, 3.5 h): ~100%
Induction of cellular detachment and apoptosis [3]: induced cellular detachment and apoptosis
Apoptosis by nuclear staining [4]: apoptotic morphology in all of the detached and most of the attached cells
Detached cells [4]: at least half
Detached cells [5]: about half
Nuclear morphology [5]: Almost all the detached and even the attached DU145 cells exhibited apoptosis-specific nuclear morphology
p27 levels [7]: increased only slightly
Apoptosis by nuclear staining [8]: apoptotic morphology in all of the detached and most of the attached cells
Detached cells [8]: at least half

— patent publication US20010012854A1, “MULTICATALYTIC PROTEASE INHIBITORS FOR USE AS ANTI-TUMOR AGENTS” (priority 1997, published 2001)
